Measurements published in patent publication US12491170B2, “Stable treprostinil prodrugs” (United Therapeutics Corporation, priority 2020, dated 2025).
Read-outs that look alike come from different tables or passages of the source.

Columns and labels:
[1] = Stability in cryopreserved hepatocytes, dog; settings: for AUC: dog
Protocol: (§1) Mixed-gender human cryopreserved hepatocytes, male Sprague-Dawley rat cryopreserved hepatocytes, and male Beagle dog cryopreserved hepatocytes were purchased from XenoTech. The hepatocytes were thawed and prepared according to the vendor's instructions, pooled into Krebs Henseleit buffer (KHB, pH 7.4), and kept on ice prior to the experiments. […] The final DMSO content in the incubation mixture was ≤0.1%. […] Aliquots of the test article were withdrawn (n=1) at 0, 15, 30, 60, and 120 minutes. […] Aliquots of 7-HC were withdrawn (n=1) at 0 and 15 minutes. The reaction was immediately terminated by adding two volumes of ice-cold acetonitrile (ACN) to the test article samples and three volumes of ACN containing internal standard to the positive control samples. The samples were then mixed and centrifuged to precipitate proteins. An aliquot of the supernatant was then diluted with water and analyzed by LC-MS/MS against calibration standards prepared in a matched matrix. […] All test article samples were analyzed for the dosed prodrugs as well as the drug, treprostinil. The test article concentration was compared to the concentration at time 0 to determine the percent of test article remaining at each time point. Half-lives and clearance values were calculated using GraphPad software, fitting to a single-phase exponential decay equation.

[2] = rat
[3] = Stability in cryopreserved hepatocytes, rat; settings: for AUC: rat
Protocol: as §1

[4] = Stability in liver microsomes, human; settings: for AUC: human
Protocol: (§2) Mixed-gender human liver microsomes, male Sprague-Dawley rat liver microsomes, and male Beagle dog liver microsomes were purchased from XenoTech. The reaction mixture, minus NADPH, was prepared as described below. […] An aliquot of the reaction mixture (without cofactor) was equilibrated in a shaking water bath at 37° C. for 5 minutes. The reaction was initiated by the addition of cofactor, and the mixture was incubated in a shaking water bath at 37° C. Aliquots (200 μL) were withdrawn at 0, 10, 20, 30, and 60 minutes. Test article samples were immediately combined with 400 μL of ice-cold acetonitrile (ACN) to terminate the reaction. […] The samples were then mixed and centrifuged to precipitate proteins. Aliquots of the supernatant were removed, diluted 1:1 into distilled water containing internal standard, and analyzed by LC-MS/MS against calibration standards prepared in a matched matrix. All samples were analyzed for the dosed prodrugs as well as the drug, treprostinil. The test article concentration was compared to the concentration at time 0 to determine the percent of test article remaining at each time point. Half-lives and clearance were calculated using GraphPad software, fitting to a single-phase exponential decay equation.
(§3) • Liver Microsomes 0.5 mg/mL • NADPH (cofactor) 1 mM • Potassium Phosphate, pH 7.4 100 mM • Magnesium Chloride 5 mM • Test Article 1 μM

[5] = Stability in cryopreserved hepatocytes, human; settings: for AUC: human
Protocol: as §1

[6] = Stability in liver microsomes, rat
Protocol: as §2, §3

[7] = Stability in liver microsomes, dog
Protocol: as §2, §3

[8] = dog

Structure (SMILES) | Trep Concentration (μM) 0 min [1] [µM] | Trep Concentration (μM) 30 min [1] [µM] | Trep Concentration (μM) 60 min [1] [µM] | Trep Concentration (μM) 120 min [1] [µM] | AUC [1] [µmol·min/L] | AUC [2] [µmol·min/L] | Trep Concentration (μM) 0 min [3] [µM] | Trep Concentration (μM) 15 min [3] [µM] | Trep Concentration (μM) 30 min [3] [µM] | Trep Concentration (μM) 60 min [3] [µM] | Trep Concentration (μM) 120 min [3] [µM] | AUC [3] [µmol·min/L] | Trep Concentration 0 min [4] [µM] | Trep Concentration 10 min [4] [µM] | Trep Concentration 30 min [4] [µM] | Trep Concentration 60 min [4] [µM] | AUC [4] [µmol·min/L] | Trep Concentration (μM) 0 min [5] [µM] | Trep Concentration (μM) 15 min [5] [µM] | Trep Concentration (μM) 30 min [5] [µM] | other results
CCCCCC(CCC1C(O)CC2Cc3c(cccc3OCC(=O)O)CC21)OC(=O)C12CC3CC(CC(C3)C1)C2 (centres unmarked) [LXIX] | 0.00877 | 0.262 | 0.263 | 0.236 | 28.28 | 2.65 | 0 | 0.0238 | 0.0421 | 0.0712 | 0.119 | 8.08 | 0.321 | 0.365 | 0.36 | 0.252 | 19.91 | 0 | 0.198 | 0.294 | Trep Concentration (μM) 15 min [1]: 0.227 µM; Trep Concentration 20 min [4]: 0.367 µM; Trep Concentration (μM) 60 min [5]: 0.338 µM; Trep Concentration (μM) 120 min [5]: 0.335 µM; AUC [5]: 34.85 µmol·min/L; Trep Concentration 0 min [6]: 0.0251 µM; Trep Concentration 10 min [6]: 0.0344 µM; Trep Concentration 20 min [6]: 0.0421 µM; Trep Concentration 30 min [6]: 0.0483 µM; Trep Concentration 60 min [6]: 0.0527 µM; Trep Concentration 0 min [7]: 0.517 µM; Trep Concentration 10 min [7]: 0.57 µM; Trep Concentration 20 min [7]: 0.609 µM; Trep Concentration 30 min [7]: 0.696 µM; Trep Concentration 60 min [7]: 0.657 µM; AUC [8]: 38.15 µmol·min/L
CCCCCC(CCC1C(O)CC2Cc3c(cccc3OCC(=O)O)CC21)OC(=O)c1ccc(O)c(O)c1 (centres unmarked) [LXVI] | 0 | 0 | 0 | 0.00519 | 0.16 | 0.26 | 0 | 0 | 0 | 0 | 0 | 0.00 | 0.0131 | 0.0155 | 0.0168 | 0.0141 | 0.94 | 0 | 0.0209 | 0.0147 | Trep Concentration (μM) 15 min [1]: 0 µM; Trep Concentration (μM) 60 min [5]: 0.0184 µM; Trep Concentration (μM) 120 min [5]: 0.0237 µM; AUC [5]: 2.18 µmol·min/L; Trep Concentration 0 min [6]: 0 µM; Trep Concentration 10 min [6]: 0.00332 µM; Trep Concentration 20 min [6]: 0.00368 µM; Trep Concentration 30 min [6]: 0.00422 µM; Trep Concentration 60 min [6]: 0.00722 µM; Trep Concentration 0 min [7]: 0 µM; Trep Concentration 10 min [7]: 0 µM; Trep Concentration 20 min [7]: 0 µM; Trep Concentration 30 min [7]: 0.00396 µM; Trep Concentration 60 min [7]: 0.00602 µM; AUC [8]: 0.17 µmol·min/L
CCCCCC(CCC1C(O)CC2Cc3c(cccc3OCC(=O)O)CC21)OC(=O)N1CCC(O)CC1 (centres unmarked) [LVIII] | 0 | 0.00519 | 0.00214 | 0.00344 | 0.32 | 0.00 | 0 | 0 | 0 | 0 | 0 | 0.00 | 0 | 0 | 0 | 0 | 0.00 | 0 | 0 | 0 | Trep Concentration (μM) 15 min [1]: 0 µM; Trep Concentration 20 min [4]: 0 µM; Trep Concentration (μM) 60 min [5]: 0 µM; Trep Concentration (μM) 120 min [5]: 0 µM; AUC [5]: 0.00 µmol·min/L; Trep Concentration 0 min [6]: 0 µM; Trep Concentration 10 min [6]: 0 µM; Trep Concentration 20 min [6]: 0 µM; Trep Concentration 30 min [6]: 0 µM; Trep Concentration 60 min [6]: 0 µM; Trep Concentration 0 min [7]: 0 µM; Trep Concentration 10 min [7]: 0 µM; Trep Concentration 20 min [7]: 0 µM; Trep Concentration 30 min [7]: 0 µM; Trep Concentration 60 min [7]: 0 µM; AUC [8]: 0.00 µmol·min/L

More lines, main results first:

Trep Concentration (μM) 0 min [1] [µM] | Trep Concentration (μM) 30 min [1] [µM] | Trep Concentration (μM) 60 min [1] [µM] | Trep Concentration (μM) 120 min [1] [µM] | AUC [1] [µmol·min/L] | AUC [2] [µmol·min/L] | Trep Concentration (μM) 0 min [3] [µM] | Trep Concentration (μM) 15 min [3] [µM] | Trep Concentration (μM) 30 min [3] [µM] | Trep Concentration (μM) 60 min [3] [µM] | Trep Concentration (μM) 120 min [3] [µM] | AUC [3] [µmol·min/L] | Trep Concentration 0 min [4] [µM] | Trep Concentration 10 min [4] [µM] | Trep Concentration 30 min [4] [µM] | Trep Concentration 60 min [4] [µM] | AUC [4] [µmol·min/L] | Trep Concentration (μM) 0 min [5] [µM] | Trep Concentration (μM) 15 min [5] [µM] | Trep Concentration (μM) 30 min [5] [µM] | Structure (SMILES) | other results
0.0381 | 0.543 | 0.446 | 0.4 | 53.99 | 8.02 | 0.00292 | 0.161 | 0.266 | 0.397 | 0.503 | 41.38 | 0.883 | 0.681 | 0.513 | 0.341 | 32.62 | 0.00744 | 0.573 | 0.623 | CCCCCC(CCC1C(O)CC2Cc3c(cccc3OCC(=O)O)CC21)OC(C)=O (centres unmarked) [XLIII] | Trep Concentration 20 min [4]: 0.602 µM; Trep Concentration (μM) 60 min [5]: 0.54 µM; Trep Concentration (μM) 120 min [5]: 0.507 µM; AUC [5]: 62.18 µmol·min/L; Trep Concentration 0 min [6]: 0.035 µM; Trep Concentration 10 min [6]: 0.0741 µM; Trep Concentration 20 min [6]: 0.111 µM; Trep Concentration 30 min [6]: 0.145 µM; Trep Concentration 60 min [6]: 0.206 µM; Trep Concentration 0 min [7]: 0.964 µM; Trep Concentration 10 min [7]: 0.917 µM; Trep Concentration 20 min [7]: 0.899 µM; Trep Concentration 30 min [7]: 0.932 µM; Trep Concentration 60 min [7]: 0.873 µM; AUC [8]: 54.72 µmol·min/L
0 | 0.00583 | 0.00715 | 0.0129 | 1.05 | 0.69 | 0 | 0 | 0.00403 | 0.00545 | 0.00743 | 0.56 | 0.201 | 0.237 | 0.252 | 0.178 | 13.55 | 0 | 0.147 | 0.194 | CCCCCC(CCC1C(O)CC2Cc3c(cccc3OCC(=O)O)CC21)OC(=O)c1ccc(O)cc1 (centres unmarked) [LXVIII] | Trep Concentration (μM) 15 min [1]: 0.0142 µM; Trep Concentration 20 min [4]: 0.246 µM; Trep Concentration (μM) 120 min [5]: 0.17 µM; AUC [5]: 20.45 µmol·min/L; Trep Concentration 0 min [6]: 0.00607 µM; Trep Concentration 10 min [6]: 0.00792 µM; Trep Concentration 20 min [6]: 0.0105 µM; Trep Concentration 30 min [6]: 0.0127 µM; Trep Concentration 60 min [6]: 0.0145 µM; Trep Concentration 10 min [7]: 0.0246 µM; Trep Concentration 20 min [7]: 0.0324 µM; Trep Concentration 30 min [7]: 0.0375 µM; Trep Concentration 60 min [7]: 0.0382 µM; AUC [8]: 1.98 µmol·min/L
